# Test results reported in article PMC4620497 (Scientific Reports, 2015).
# What was measured:
# CDK2 = CDK2 (Homo sapiens, UniProt P24941); assay: KINOMEscan panel screen; type: binding; conditions: read-out: Percent Control(%)
# CSF1R = molecular target: T1, CSF1R (Homo sapiens, UniProt P07333); assay: KINOMEscan panel screen; type: binding; conditions: read-out: Percent Control(%)
# T1 construct: purchased DiscoveRx KINOMEscan (Ambit Biosciences)
# DYRK1A = molecular target: T2, DYRK1A (Homo sapiens, UniProt Q13627); assay: KINOMEscan panel screen; type: binding; conditions: read-out: Percent Control(%)
# T2 construct: purchased DiscoveRx KINOMEscan (Ambit Biosciences)
# EIF2AK1 = molecular target: T3, EIF2AK1 (Homo sapiens, UniProt Q9BQI3); assay: KINOMEscan panel screen; type: binding; conditions: read-out: Percent Control(%)
# T3 construct: purchased DiscoveRx KINOMEscan (Ambit Biosciences)
# T3 sequence (Q9BQI3 whole entry): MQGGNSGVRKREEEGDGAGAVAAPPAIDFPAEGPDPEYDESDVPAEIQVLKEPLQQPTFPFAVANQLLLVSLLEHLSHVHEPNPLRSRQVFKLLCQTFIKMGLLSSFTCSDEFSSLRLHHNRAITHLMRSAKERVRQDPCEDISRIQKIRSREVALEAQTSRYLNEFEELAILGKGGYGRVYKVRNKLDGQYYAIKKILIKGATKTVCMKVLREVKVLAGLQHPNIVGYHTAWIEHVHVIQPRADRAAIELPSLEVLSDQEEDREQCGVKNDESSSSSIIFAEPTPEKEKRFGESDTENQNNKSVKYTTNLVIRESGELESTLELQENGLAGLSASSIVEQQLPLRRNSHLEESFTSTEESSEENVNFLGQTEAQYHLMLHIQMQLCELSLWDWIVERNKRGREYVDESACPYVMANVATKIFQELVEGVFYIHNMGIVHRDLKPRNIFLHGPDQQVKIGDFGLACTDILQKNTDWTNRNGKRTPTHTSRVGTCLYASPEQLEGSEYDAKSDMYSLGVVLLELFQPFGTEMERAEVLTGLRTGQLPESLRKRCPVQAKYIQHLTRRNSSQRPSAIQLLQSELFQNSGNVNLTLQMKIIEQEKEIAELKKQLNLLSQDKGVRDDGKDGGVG
# ERBB3 = molecular target: T4, ERBB3 (Homo sapiens, UniProt P21860); assay: KINOMEscan panel screen; type: binding; conditions: read-out: Percent Control(%)
# T4 construct: purchased DiscoveRx KINOMEscan (Ambit Biosciences)
# KIT(D816V) = molecular target: T5, KIT(D816V) (Homo sapiens, UniProt P10721, D816V); assay: KINOMEscan panel screen; type: binding; conditions: read-out: Percent Control(%)
# T5 construct: purchased DiscoveRx KINOMEscan (Ambit Biosciences)
# MAP3K2 = molecular target: T6, MAP3K2 (Homo sapiens, UniProt Q9Y2U5); assay: KINOMEscan panel screen; type: binding; conditions: read-out: Percent Control(%)
# T6 construct: purchased DiscoveRx KINOMEscan (Ambit Biosciences)
# TIE2 = molecular target: T7, TIE2 (Homo sapiens, UniProt Q02763); assay: KINOMEscan panel screen; type: binding; conditions: read-out: Percent Control(%)
# T7 construct: purchased DiscoveRx KINOMEscan (Ambit Biosciences)
# T7 sequence (Q02763 23-1124): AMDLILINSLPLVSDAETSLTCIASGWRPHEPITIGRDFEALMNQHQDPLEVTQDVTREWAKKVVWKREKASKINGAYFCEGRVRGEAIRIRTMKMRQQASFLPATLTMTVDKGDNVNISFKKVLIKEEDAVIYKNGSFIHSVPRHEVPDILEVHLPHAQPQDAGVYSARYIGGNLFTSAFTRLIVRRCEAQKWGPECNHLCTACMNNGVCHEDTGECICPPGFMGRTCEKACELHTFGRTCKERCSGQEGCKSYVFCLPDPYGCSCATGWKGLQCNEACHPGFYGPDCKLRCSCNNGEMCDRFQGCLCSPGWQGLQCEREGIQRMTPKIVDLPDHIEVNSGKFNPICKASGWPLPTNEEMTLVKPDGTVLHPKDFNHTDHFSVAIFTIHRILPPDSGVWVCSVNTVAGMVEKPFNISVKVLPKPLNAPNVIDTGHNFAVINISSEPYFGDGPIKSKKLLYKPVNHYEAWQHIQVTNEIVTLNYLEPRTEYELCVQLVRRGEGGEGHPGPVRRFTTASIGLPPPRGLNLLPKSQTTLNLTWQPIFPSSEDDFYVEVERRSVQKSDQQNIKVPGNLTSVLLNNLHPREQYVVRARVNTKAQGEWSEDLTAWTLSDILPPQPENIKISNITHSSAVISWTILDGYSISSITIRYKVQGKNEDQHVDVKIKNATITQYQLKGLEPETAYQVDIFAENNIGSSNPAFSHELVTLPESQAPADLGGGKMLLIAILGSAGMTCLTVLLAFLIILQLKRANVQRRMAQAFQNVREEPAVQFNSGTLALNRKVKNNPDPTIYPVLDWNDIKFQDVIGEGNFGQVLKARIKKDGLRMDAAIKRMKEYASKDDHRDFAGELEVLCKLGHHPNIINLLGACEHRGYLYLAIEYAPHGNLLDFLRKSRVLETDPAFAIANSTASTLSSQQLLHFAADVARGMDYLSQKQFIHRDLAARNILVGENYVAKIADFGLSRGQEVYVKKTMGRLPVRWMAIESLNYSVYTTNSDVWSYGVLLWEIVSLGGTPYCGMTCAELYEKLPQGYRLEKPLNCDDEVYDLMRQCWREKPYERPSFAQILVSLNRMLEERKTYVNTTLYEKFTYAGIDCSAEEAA
# TNIK = molecular target: T8, TNIK (Homo sapiens, UniProt Q9UKE5); assay: KINOMEscan panel screen; type: binding; conditions: read-out: Percent Control(%)
# T8 construct: purchased DiscoveRx KINOMEscan (Ambit Biosciences)
# CAMK4 = molecular target: T9, CAMK4 (Homo sapiens, UniProt Q16566); assay: KINOMEscan kinase binding assay (Kd); conditions: Table S1
# T9 construct: purchased DiscoveRx KINOMEscan (Ambit Biosciences)
# T9 sequence (Q16566 1-473): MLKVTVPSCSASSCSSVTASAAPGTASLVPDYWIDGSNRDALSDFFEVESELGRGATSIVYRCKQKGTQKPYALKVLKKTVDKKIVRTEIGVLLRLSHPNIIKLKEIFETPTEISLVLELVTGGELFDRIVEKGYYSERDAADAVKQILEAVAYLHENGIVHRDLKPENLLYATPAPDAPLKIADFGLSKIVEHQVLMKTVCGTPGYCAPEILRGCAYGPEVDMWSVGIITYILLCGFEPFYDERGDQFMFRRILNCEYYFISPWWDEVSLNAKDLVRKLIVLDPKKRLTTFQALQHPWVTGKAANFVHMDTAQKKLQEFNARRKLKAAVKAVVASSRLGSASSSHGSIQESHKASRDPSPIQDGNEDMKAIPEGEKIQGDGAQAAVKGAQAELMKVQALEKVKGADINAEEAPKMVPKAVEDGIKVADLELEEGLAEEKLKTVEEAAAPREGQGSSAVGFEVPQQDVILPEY
# Source text: (§1) In vitro KINOMEscan kinase binding assays (Ambit Biosciences) were employed to determine the binding affinity (Kd) of compounds[41][42].
# (§2) compound 1. The y have very similar spectrum of activity in enz ymatic and cellular
# (§3) levels. Both of them have the ability to inhibit Wnt/β -catenin si gnalin g. However, in […]
# CHEK1 = molecular target: T10, CHEK1 (Homo sapiens, UniProt O14757); assay: KINOMEscan kinase binding assay (Kd); conditions: Table S1
# T10 construct: purchased DiscoveRx KINOMEscan (Ambit Biosciences)
# T10 sequence (O14757 1-476): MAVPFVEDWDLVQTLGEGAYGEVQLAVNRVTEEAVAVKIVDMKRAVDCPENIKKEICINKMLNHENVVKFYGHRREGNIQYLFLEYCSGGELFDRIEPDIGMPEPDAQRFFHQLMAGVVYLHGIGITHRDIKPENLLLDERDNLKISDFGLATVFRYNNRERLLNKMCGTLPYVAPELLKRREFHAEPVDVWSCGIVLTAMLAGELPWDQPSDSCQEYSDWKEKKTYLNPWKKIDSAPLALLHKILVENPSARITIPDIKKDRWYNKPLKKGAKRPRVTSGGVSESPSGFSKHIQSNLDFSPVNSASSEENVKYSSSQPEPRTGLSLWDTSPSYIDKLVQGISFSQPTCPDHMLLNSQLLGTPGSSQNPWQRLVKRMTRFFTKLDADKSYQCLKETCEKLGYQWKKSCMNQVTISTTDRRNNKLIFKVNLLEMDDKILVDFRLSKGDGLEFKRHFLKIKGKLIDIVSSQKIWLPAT
# Source text: as §1, §2, §3
# DLK = molecular target: T11, DLK (Homo sapiens, UniProt Q12852); assay: KINOMEscan kinase binding assay (Kd); conditions: Table S1
# T11 sequence (Q12852 1-859): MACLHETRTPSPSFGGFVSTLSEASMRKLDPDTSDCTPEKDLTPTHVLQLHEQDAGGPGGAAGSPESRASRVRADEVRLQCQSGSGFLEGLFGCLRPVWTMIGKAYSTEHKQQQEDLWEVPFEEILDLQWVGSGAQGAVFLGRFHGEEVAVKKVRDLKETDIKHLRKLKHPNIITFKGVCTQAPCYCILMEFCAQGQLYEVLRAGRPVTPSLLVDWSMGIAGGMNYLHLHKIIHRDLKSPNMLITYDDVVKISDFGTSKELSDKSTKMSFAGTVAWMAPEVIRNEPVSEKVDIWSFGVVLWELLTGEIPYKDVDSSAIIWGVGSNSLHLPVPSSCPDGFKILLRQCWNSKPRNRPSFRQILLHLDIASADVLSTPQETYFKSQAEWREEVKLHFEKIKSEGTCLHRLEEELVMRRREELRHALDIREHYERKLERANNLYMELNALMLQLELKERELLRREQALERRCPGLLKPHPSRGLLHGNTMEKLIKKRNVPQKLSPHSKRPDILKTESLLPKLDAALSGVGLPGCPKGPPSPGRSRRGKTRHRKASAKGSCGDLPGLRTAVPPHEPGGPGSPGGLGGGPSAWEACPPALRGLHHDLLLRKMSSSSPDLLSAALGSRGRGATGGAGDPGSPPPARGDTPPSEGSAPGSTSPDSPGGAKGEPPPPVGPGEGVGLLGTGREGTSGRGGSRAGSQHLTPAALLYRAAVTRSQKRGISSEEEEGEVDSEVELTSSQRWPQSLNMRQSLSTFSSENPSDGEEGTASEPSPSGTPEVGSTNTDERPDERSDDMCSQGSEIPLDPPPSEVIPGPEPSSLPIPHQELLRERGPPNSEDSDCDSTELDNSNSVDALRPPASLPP
# Source text: as §1, §2, §3
# ERBB4 = molecular target: T12, ERBB4 (Homo sapiens, UniProt Q15303); assay: KINOMEscan kinase binding assay (Kd); conditions: Table S1
# T12 construct: purchased DiscoveRx KINOMEscan (Ambit Biosciences)
# T12 sequence (Q15303 26-1308): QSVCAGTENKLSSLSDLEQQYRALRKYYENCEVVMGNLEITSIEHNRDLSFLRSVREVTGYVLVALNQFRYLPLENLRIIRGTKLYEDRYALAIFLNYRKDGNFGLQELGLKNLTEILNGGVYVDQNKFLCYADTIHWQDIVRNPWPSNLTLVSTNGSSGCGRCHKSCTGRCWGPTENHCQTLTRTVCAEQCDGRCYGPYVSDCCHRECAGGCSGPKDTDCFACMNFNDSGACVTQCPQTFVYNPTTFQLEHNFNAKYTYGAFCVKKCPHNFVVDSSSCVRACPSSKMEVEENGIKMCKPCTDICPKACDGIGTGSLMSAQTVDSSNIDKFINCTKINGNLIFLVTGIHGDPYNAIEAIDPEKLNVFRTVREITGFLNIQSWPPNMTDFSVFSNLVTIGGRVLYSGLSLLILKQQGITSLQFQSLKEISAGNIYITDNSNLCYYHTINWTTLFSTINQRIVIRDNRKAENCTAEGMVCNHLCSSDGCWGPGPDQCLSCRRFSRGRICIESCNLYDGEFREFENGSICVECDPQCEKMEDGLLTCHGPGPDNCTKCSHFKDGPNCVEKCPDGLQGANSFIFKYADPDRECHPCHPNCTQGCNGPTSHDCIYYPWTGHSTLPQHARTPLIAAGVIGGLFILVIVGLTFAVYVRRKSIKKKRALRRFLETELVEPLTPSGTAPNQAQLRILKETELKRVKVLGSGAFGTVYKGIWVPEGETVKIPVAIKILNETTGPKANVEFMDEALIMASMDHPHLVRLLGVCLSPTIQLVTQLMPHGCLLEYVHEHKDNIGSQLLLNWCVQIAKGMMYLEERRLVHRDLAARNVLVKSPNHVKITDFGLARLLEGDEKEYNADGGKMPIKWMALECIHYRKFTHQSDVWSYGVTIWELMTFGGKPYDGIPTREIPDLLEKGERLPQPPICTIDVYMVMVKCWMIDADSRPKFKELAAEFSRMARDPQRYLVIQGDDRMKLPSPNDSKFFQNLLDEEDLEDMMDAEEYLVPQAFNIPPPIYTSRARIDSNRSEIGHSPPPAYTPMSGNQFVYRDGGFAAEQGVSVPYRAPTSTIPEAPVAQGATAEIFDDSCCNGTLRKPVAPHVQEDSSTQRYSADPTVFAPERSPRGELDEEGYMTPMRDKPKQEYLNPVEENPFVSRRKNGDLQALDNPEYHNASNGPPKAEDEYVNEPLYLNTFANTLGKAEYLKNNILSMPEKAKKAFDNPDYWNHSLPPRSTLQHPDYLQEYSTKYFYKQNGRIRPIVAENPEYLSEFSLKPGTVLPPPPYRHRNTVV
# Source text: as §1, §2, §3
# ERK = assay: KINOMEscan kinase binding assay (Kd); conditions: Table S1
# Source text: as §1, §2, §3
# ERN1 = ERN1 (Homo sapiens, UniProt O75460); assay: KINOMEscan kinase binding assay (Kd); conditions: Table S1
# Source text: as §1, §2, §3
# IGF1R = molecular target: T13, IGF1R (Homo sapiens, UniProt P08069); assay: KINOMEscan kinase binding assay (Kd); conditions: Table S1
# T13 construct: DNA tag (qPCR read-out); purchased Ambit Biosciences (KINOMEscan service)
# T13 sequence (P08069 31-1367): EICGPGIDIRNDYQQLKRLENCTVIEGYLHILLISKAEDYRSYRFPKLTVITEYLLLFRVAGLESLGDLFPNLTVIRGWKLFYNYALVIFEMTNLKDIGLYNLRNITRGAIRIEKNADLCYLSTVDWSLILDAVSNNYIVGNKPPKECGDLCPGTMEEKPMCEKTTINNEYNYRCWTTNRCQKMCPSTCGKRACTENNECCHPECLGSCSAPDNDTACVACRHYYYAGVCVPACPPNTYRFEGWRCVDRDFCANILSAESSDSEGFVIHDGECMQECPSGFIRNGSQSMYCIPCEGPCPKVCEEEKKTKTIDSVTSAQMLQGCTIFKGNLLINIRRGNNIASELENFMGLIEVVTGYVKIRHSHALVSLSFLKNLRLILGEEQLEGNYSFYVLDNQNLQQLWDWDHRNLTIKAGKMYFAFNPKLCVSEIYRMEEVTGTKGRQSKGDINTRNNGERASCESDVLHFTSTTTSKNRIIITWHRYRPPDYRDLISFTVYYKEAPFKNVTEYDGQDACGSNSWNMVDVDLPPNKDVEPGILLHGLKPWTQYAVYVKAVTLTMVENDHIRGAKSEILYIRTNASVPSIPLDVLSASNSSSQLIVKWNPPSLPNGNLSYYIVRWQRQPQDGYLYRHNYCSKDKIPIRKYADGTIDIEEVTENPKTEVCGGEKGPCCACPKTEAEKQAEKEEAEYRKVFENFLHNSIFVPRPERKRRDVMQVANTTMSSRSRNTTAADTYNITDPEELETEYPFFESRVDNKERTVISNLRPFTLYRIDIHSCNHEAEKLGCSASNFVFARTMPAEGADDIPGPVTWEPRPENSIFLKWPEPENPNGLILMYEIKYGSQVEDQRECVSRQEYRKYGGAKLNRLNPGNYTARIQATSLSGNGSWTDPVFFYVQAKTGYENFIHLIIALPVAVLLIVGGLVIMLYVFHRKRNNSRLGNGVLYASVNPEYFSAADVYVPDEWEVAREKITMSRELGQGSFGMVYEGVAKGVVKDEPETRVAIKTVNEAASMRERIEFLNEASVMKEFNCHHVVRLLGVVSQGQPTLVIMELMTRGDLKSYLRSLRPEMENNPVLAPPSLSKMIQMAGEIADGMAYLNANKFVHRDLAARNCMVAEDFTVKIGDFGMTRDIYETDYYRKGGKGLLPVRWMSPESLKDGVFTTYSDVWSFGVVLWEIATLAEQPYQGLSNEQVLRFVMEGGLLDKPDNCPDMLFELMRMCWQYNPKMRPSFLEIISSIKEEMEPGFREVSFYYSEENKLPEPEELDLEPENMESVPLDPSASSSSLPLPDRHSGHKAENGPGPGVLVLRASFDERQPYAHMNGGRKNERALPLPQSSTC
# Source text: as §1, §2, §3
# PAK1 = PAK1 (Homo sapiens, UniProt Q13153); assay: KINOMEscan kinase binding assay (Kd); conditions: Table S1
# Source text: as §1, §2, §3
# PAK2 = molecular target: T14, PAK2 (Homo sapiens, UniProt Q13177); assay: KINOMEscan kinase binding assay (Kd); conditions: Table S1
# T14 construct: purchased DiscoveRx KINOMEscan (Ambit Biosciences)
# T14 sequence (Q13177 whole entry): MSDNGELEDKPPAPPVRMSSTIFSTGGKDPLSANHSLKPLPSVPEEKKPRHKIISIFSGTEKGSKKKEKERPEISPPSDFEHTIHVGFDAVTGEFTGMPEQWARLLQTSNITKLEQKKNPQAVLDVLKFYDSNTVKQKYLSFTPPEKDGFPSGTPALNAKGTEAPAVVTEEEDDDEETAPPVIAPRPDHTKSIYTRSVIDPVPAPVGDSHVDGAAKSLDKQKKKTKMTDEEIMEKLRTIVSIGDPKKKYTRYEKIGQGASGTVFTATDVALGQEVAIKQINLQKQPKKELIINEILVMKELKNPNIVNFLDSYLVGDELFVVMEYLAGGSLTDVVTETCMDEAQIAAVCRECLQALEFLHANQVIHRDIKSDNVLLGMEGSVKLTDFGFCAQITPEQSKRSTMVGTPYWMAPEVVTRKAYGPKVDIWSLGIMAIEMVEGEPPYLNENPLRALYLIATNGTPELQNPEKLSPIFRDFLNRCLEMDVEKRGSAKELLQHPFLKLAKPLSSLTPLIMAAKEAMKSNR
# Source text: as §1, §2, §3
structure (smiles),measurement,setting,value
"CC(C)(C)c1cc(NC(=O)Nc2ccc(Oc3ncnc4[nH]ncc34)c(F)c2)no1 [SKLB-677, 1-(4-(1H-pyrazolo[3,4-d]pyrimidin-4-yloxy)-3-fluorophenyl)-3-(5-tert-butylisoxazol-3-yl)urea]",remaining binding at 10 µM,CDK2,1.6%
same,remaining binding at 10 µM,CSF1R,0.3%
same,remaining binding at 10 µM,DYRK1A,80%
same,remaining binding at 10 µM,EIF2AK1,96%
same,remaining binding at 10 µM,ERBB3,98%
same,remaining binding at 10 µM,KIT(D816V),0.2%
same,remaining binding at 10 µM,MAP3K2,100%
same,remaining binding at 10 µM,TIE2,0.2%
same,remaining binding at 10 µM,TNIK,5.2%
same,Kd,CAMK4,> 10 µM
same,Kd,CHEK1,> 10 µM
same,Kd,DLK,> 10 µM
same,Kd,ERBB4,> 10 µM
same,Kd,ERK,> 10 µM
same,Kd,ERN1,> 10 µM
same,Kd,IGF1R,> 10 µM
same,Kd,PAK1,> 10 µM
same,Kd,PAK2,> 10 µM
